How the values were obtained:
[1] = biological target: CDK2/cyclin A (Homo sapiens, UniProt P24941); assay: Kinase assay, radioactive phosphate incorporation, CDK2/cyclin A; type: biochemical; details: 100 μM ATP, 30° C.; read-out: Kinase inhibition IC50 CDK2/cyclin A
Method: (§1) The compounds from the examples above were investigated for their ability to inhibit the enzymatic activity of various protein kinases. This was achieved by measurement of incorporation of radioactive phosphate from ATP into appropriate polypeptide substrates. Recombinant protein kinases and kinase complexes were produced or obtained commercially. Assays were performed using 96-well plates and appropriate assay buffers (typically 25 mM β-glycerophosphate, 20 mM MOPS, 5 MM EGTA, 1 mM DTT, 1 mM Na3VO3, pH 7.4), into which were added 2-4 μg of active enzyme with appropriate substrates. The reactions were initiated by addition of Mg/ATP mix (15 mM MgCl2+100 μM ATP with 30-50 kBq per well of [γ-^32P]-ATP) and mixtures incubated as required at 30° C. Reactions were stopped on ice, followed by filtration through p81 filterplates or GF/C filterplates (Whatman Polyfiltronics, Kent, UK). After washing 3 times with 75 mM aq orthophosphoric acid, plates were dried, scintillant added and incorporated radioactivity measured in a scintillation counter (TopCount, Packard Instruments, Pangbourne, Berks, UK). Compounds for kinase assay were made up as 10 mM stocks in DMSO and diluted into 10% DMSO in assay buffer.

[2] = biological target: CDK2/cyclin E (Homo sapiens, UniProt P24941); assay: Kinase assay, radioactive phosphate incorporation, CDK2/cyclin E; type: biochemical; details: 100 μM ATP, 30° C.; read-out: Kinase inhibition IC50 CDK2/cyclin E
Method: as §1

[3] = biological target: CDK4/cyclin D1 (Homo sapiens, UniProt P11802); assay: Kinase assay, radioactive phosphate incorporation, CDK4/cyclin D1; type: biochemical; details: 100 μM ATP, 30° C.; read-out: Kinase inhibition IC50 CDK4/cyclin D1
Chain of CDK4/cyclin D1 (P11802 whole entry, species assumed): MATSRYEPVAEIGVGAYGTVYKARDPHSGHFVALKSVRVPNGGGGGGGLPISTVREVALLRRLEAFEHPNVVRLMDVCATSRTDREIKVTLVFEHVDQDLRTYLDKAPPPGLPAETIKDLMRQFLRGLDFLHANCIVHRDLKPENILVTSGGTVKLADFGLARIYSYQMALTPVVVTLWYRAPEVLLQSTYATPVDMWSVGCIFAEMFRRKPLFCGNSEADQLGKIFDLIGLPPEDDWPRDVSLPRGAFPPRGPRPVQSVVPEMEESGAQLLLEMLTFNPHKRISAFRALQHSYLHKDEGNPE
Chain of CDK4/cyclin D1 (P24385 whole entry partner, species assumed): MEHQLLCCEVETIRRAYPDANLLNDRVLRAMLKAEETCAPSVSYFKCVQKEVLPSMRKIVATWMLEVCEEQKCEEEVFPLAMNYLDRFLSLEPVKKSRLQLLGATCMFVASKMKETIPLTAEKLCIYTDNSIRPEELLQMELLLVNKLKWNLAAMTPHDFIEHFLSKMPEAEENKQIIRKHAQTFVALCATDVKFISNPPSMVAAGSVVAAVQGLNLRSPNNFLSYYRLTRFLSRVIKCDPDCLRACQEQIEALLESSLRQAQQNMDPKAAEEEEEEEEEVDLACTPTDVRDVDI
Method: as §1

[4] = biological target: CDK7/cyclin H (Homo sapiens, UniProt P50613); assay: Kinase assay, radioactive phosphate incorporation, CDK7/cyclin H; type: biochemical; details: 100 μM ATP, 30° C.; read-out: Kinase inhibition IC50 CDK7/cyclin H
Chain of CDK7/cyclin H (P50613 whole entry, species assumed): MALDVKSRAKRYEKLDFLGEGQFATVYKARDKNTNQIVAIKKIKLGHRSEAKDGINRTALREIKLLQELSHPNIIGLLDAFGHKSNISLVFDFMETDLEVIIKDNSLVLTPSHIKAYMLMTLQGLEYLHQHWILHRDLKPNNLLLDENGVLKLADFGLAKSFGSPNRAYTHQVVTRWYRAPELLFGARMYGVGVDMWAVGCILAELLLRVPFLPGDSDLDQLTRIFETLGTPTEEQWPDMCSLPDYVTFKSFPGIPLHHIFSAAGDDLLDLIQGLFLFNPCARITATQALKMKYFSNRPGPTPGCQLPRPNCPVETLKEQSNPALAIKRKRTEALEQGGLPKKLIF
Chain of CDK7/cyclin H (P51946 whole entry partner, species assumed): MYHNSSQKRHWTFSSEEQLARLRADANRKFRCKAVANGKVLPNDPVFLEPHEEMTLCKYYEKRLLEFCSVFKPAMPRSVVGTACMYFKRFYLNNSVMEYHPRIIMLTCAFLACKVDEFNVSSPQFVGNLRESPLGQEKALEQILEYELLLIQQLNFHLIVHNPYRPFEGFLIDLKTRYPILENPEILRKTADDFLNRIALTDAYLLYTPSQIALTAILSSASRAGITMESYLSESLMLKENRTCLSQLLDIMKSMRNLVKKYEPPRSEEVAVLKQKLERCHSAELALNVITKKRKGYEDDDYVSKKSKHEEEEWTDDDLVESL
Method: as §1

[5] = biological target: CDK9/cyclin T1 (Homo sapiens, UniProt P50750); assay: Kinase assay, radioactive phosphate incorporation, CDK9/cyclin T1; type: biochemical; details: 100 μM ATP, 30° C.; read-out: Kinase inhibition IC50 CDK9/cyclin T1
Chain of CDK9/cyclin T1 (P50750 whole entry, species assumed): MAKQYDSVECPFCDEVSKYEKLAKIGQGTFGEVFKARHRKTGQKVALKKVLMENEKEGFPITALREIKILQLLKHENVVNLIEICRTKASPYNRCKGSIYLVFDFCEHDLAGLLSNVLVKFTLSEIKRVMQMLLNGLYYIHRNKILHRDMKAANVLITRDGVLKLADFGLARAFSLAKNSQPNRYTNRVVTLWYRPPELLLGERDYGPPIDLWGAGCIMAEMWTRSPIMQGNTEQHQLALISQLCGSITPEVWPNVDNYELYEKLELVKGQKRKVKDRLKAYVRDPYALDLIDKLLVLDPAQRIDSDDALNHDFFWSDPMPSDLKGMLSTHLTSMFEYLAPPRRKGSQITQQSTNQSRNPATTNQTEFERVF
Chain of CDK9/cyclin T1 (O60563 whole entry partner, species assumed): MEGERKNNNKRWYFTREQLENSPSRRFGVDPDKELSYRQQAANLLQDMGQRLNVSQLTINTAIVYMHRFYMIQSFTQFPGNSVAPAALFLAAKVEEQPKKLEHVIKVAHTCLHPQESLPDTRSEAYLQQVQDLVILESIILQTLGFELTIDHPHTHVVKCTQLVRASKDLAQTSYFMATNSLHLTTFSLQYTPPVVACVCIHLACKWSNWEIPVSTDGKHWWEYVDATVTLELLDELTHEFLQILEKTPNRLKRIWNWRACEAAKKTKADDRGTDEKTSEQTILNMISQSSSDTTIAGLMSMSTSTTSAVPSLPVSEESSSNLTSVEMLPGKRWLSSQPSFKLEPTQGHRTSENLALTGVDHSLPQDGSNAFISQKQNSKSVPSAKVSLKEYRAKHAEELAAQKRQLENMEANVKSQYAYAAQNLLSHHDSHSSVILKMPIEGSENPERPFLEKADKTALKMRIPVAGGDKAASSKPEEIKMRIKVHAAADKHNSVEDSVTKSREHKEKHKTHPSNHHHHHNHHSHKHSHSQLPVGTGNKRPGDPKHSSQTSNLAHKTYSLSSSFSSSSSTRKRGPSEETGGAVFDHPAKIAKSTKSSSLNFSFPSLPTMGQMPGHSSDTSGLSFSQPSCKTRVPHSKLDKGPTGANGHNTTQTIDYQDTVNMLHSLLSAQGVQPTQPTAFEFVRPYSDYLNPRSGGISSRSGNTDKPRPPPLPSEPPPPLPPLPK
Method: as §1

[6] = biological target: GSK3β (Homo sapiens, UniProt P49841); assay: Kinase assay, radioactive phosphate incorporation, GSK3β; type: biochemical; details: 100 μM ATP, 30° C.; read-out: Kinase inhibition IC50 GSK3β
Chain of GSK3β (P49841 whole entry, species assumed): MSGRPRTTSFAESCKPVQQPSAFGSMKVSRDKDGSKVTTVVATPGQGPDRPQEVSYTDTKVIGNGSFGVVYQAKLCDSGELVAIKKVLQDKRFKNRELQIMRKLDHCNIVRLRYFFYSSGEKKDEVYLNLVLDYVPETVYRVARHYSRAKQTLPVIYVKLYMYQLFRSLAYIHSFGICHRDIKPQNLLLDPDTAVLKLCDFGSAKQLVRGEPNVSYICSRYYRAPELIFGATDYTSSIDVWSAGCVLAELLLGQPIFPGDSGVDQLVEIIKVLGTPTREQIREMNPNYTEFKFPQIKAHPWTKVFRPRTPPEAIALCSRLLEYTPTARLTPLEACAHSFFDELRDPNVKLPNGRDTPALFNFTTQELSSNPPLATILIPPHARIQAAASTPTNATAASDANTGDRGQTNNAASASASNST
Method: as §1

[7] = tested on: A549; assay: 72-h MTT cytotoxicity assay, A549; type: cell-based; details: Homo sapiens, read-out: 72-h MTT IC50 A549, A549 cell line
Method: (§2) The compounds from the examples above were subjected to a standard cellular proliferation assay using human tumour cell lines obtained from the ATCC (American Type Culture Collection, 10801 University Boulevard, Manessas, Va. 20110-2209, USA). Standard 72-h MTT (thiazolyl blue; 3-[4,5-dimethylthiazol-2-yl]-2,5-diphenyltetrazolium bromide) assays were performed. In short: cells were seeded into 96-well plates according to doubling time and incubated overnight at 37° C. Test compounds were made up in DMSO and a 1/3 dilution series prepared in 100 μL cell media, added to cells (in triplicates) and incubated for 72 ho at 37° C. MTT was made up as a stock of 5 mg/mL in cell media and filter-sterilised. Media was removed from cells followed by a wash with 200 μL PBS. MTT solution was then added at 20 μL per well and incubated in the dark at 37° C. for 4 h. MTT solution was removed and cells again washed with 200 μL PBS. MTT dye was solubilised with 200 μL per well of DMSO with agitation.

[8] = tested on: HT29; assay: 72-h MTT cytotoxicity assay, HT29; type: cell-based; details: Homo sapiens, HT-29, read-out: 72-h MTT IC50 HT29, HT29 cell line
Method: as §2

[9] = tested on: Saos-2; assay: 72-h MTT cytotoxicity assay, Saos-2; type: cell-based; details: Homo sapiens, read-out: 72-h MTT IC50 Saos-2, Saos-2 cell line
Method: as §2

[10] = tested on: transformed human cell lines (A549, HT29, Saos-2); assay: 72-h MTT cytotoxicity assay, average of cell lines; type: cell-based; details: read-out: 72-h MTT IC50 Average, average of A549, HT29, Saos-2
Method: as §2

Row | SMILES | IC50 [1] [µM] | IC50 [2] [µM] | IC50 [3] [µM] | IC50 [4] [µM] | IC50 [5] [µM] | IC50 [6] [µM] | IC50 [7] [µM] | IC50 [8] [µM] | IC50 [9] [µM] | IC50 [10] [µM]
1 | O=[N+]([O-])c1cccc(Nc2nccc(-c3cccc(CNCc4ccccc4)c3)n2)c1 [Compound 27, {4-[3-(Benzylamino-methyl)-phenyl]-pyrimidin-2-yl}-(3-nitro-phenyl)-amine] | 6.5 | 0.57 | 16 | 6 | 2 | 0.18 | 14.1 | 4.9 | 43.8 | 20.9 ± 20.3
2 | O=[N+]([O-])c1cccc(Nc2nccc(-c3cccc(Cn4cncn4)c3)n2)c1 [Compound 30, (3-Nitro-phenyl)-[4-(3-[1,2,4]triazol-1-ylmethyl-phenyl)-pyrimidin-2-yl]-amine] |  | 0.04 |  | 0.57 | 0.002 | 0.019 | 8 | 7.1 | 4.4 | 6.5 ± 1.8
3 | c1cc(Cn2cncn2)cc(-c2ccnc(Nc3ccc(N4CCOCC4)cc3)n2)c1 [Compound 32, (4-Morpholin-4-yl-phenyl)-[4-(3-[1,2,4]triazol-1-ylmethyl-phenyl)-pyrimidin-2-yl]-amine] |  | 4.4 | 2.2 | 4 | 0.42 | 0.37 | 19.7 | 6.1 | 40.3 | 22 ± 17.2
4 | Oc1ccc(Nc2nccc(-c3cccc(Cn4cncn4)c3)n2)cc1 [Compound 33, 4-[4-(3-[1,2,4]triazol-1-ylmethyl-phenyl)-pyrimidin-2-ylamino]-phenol] | 2 | 0.14 | 9.1 | 1.1 | 0.092 | 0.12 | 10.3 | 20.7 | 7.4 | 12.8 ± 7
5 | COc1cccc(Nc2nccc(-c3cccc(Cn4cncn4)c3)n2)c1 [Compound 35, (3-Methoxy-phenyl)-[4-(3-[1,2,4]triazol-1-ylmethyl-phenyl)-pyrimidin-2-yl]-amine] | 3.2 | 0.92 | 0.57 | 0.58 | 0.069 | 0.1 | 15 | 7.7 | 23.2 | 15.3 ± 7.7
6 | N#Cc1cccc(Nc2nccc(-c3cccc(Cn4cncn4)c3)n2)c1 [Compound 36, 3-[4-(3-[1,2,4]triazol-1-ylmethyl-phenyl)-pyrimidin-2-ylamino]-benzonitrile] | 3.9 | 0.079 | 4.7 | 0.32 | 0.009 | 0.032 |  |  |  | 
7 | c1ccc(Nc2nccc(-c3ccccc3)n2)cc1 [Compound 37, Phenyl-(4-phenyl-pyrimidin-2-yl)-amine] |  | 18 |  |  |  |  | 22 | 15.2 | 60.7 | 32.6 ± 24.5
8 | CN(C)c1ccc(Nc2nccc(-c3cccc(Cn4cncn4)c3)n2)cc1 [Compound 43, N,N-Dimethyl-N′-[4-(3-[1,2,4]triazol-1-ylmethyl-phenyl)-pyrimidin-2-yl]-benzene-1,4-diamine] |  | 3.7 | 1.9 | 1.4 | 0.53 | 0.19 | 14.9 | 7.8 | 30.9 | 17.9 ± 11.8
9 | COc1ccc(OC)c(-c2ccnc(Nc3cccc([N+](=O)[O-])c3)n2)c1 [Compound 44, [4-(2,5-Dimethoxy-phenyl)-pyrimidin-2-yl]-(3-nitro-phenyl)-amine] |  | 17 |  |  |  | 0.49 | 1.5 | 1.3 | 1 | 1.3 ± 0.3
10 | COc1ccc(OC)c(-c2ccnc(Nc3ccc(O)cc3)n2)c1 [Compound 45, 4-[4-(2,5-Dimethoxy-phenyl)-pyrimidin-2-ylamino]-phenol] |  | 5.8 | 28 | 16 | 25 | 3.6 | 25.9 | 8.1 | 17.4 | 17.1 ± 8.9
11 | O=[N+]([O-])c1cccc(Nc2nccc(-c3ccc(Cl)c(Cn4cncn4)c3)n2)c1 [Compound 47, [4-(4-Chloro-3-[1,2,4]triazol-1-ylmethyl-phenyl)-pyrimidin-2-yl]-(3-nitro-phenyl)-amine] |  | 1.4 | 28 | 20 | 1.3 | 0.13 |  |  |  | 
12 | COc1ccc(Nc2nccc(-c3cccc(Cn4cncn4)c3)n2)cn1 [Compound 50, (6-Methoxy-pyridin-3-yl)-[4-(3-[1,2,4]triazol-1-ylmethyl-phenyl)-pyrimidin-2-yl]-amine] |  | 1.8 | 9.4 | 0.65 | 0.044 | 0.084 | 14.3 | 11.9 | 33.8 | 20 ± 12
13 | COc1ccc(Nc2nccc(-c3cccc(C#N)c3)n2)cn1 [Compound 51, 3-[2-(6-Methoxy-pyridin-3-ylamino)-pyrimidin-4-yl]-benzonitrile] |  | 7 |  | 28 | 3 | 0.37 | 35.7 | 10.3 | 67 | 37.7 ± 28.4
14 | COc1ccc(Nc2nccc(-c3cccc(CN4CCN(C)CC4)c3)n2)cn1 [Compound 58, (6-Methoxy-pyridin-3-yl)-{4-[3-(4-methyl-piperazin-1-ylmethyl)-phenyl]-pyrimidin-2-yl}-amine] | 10 |  | 11 | 36 | 0.19 |  | 7 | 5.7 | 9.6 | 7.4 ± 2
15 | COc1ccc(-c2ccnc(Nc3cccc([N+](=O)[O-])c3)n2)cc1 [Compound 94, [4-(4-Methoxy-phenyl)-pyrimidin-2-yl]-(3-nitro-phenyl)-amine] | 0.93 | 0.3 |  | 0.99 | 0.02 | 0.03 |  |  |  | 
16 | OCC1CCCCN1Cc1cccc(-c2ccnc(Nc3ccc(N4CCOCC4)cc3)n2)c1 (stereo not shown) [Compound 101, (1-{3-[2-(4-Morpholin-4-yl-phenylamino)-pyrimidin-4-yl]-benzyl}-piperidin-2-yl)-methanol] |  |  |  | 1.6 | 2.9 |  | 17.3 | 6 | 25 | 16.1 ± 9.6
17 | COc1ccc(Nc2nccc(-c3cccc(CN4CCCCC4CO)c3)n2)cn1 (stereo not shown) [Compound 102, (1-{3-[2-(6-Methoxy-pyridin-3-ylamino)-pyrimidin-4-yl]-benzyl}-piperidin-2-yl)-methanol] |  |  |  | 1.4 | 0.49 |  | 17 | 11.1 | 23.4 | 17.2 ± 6.2
18 | OCC1CCCCN1Cc1cccc(-c2ccnc(Nc3cccc(O)c3)n2)c1 (stereo not shown) [Compound 103, 3-{4-[3-(2-Hydroxymethyl-piperidin-1-ylmethyl)-phenyl]-pyrimidin-2-ylamino}-phenol] |  |  |  | 0.64 | 0.14 |  | 6.9 | 7 | 5.6 | 6.5 ± 0.8
19 | COc1ccc(-c2ccnc(Nc3ccc(OC)nc3)n2)cc1 [Compound 124, [4-(4-Methoxy-phenyl)-pyrimidin-2-yl]-(6-methoxy-pyridin-3-yl)-amine] | 1.1 |  | 1.5 |  | 0.02 | 0.09 |  |  |  | 

Source: US20070021419A1, “2-Aminophenyl-4-phenylpyrimidines as kinase inhibitors” (Cyclacel Limited, priority 2003, published 2007)
